Laboratory results taken from patent publication US12180193B2, “Accelerating fibrosarcoma protein degrading compounds and associated methods of use” (Arvinas Operations, Inc., priority 2020, dated 2024).

Columns and labels:
[1] = molecular target: T1, BRAF V600E (Homo sapiens, UniProt P15056, V600E); experiment: Cellular assay of target protein degradation, T-Rex 293 cells stably transfected with HA-BRAF_V600E (HA immunofluorescence, high content imaging); assay type: cell-based; conditions: T-Rex 293 HA-BRAF V600E; for DC50: half maximal degradation, read-out: BRaf V600E DC50; for Dmax: maximum degradation observed
T1 construct: expressed in transfected cells
In short: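 Read-out is anti-HA immunofluorescence quantified by high-content imaging, giving half-maximal degradation concentration (DC50) and maximum degradation (Dmax, percent of control). Cells expressed the construct under 1 ng/mL doxycycline and received compound (1 μM to 0.1 nM final, 0.1% DMSO) for 24 h at 37 °C.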

[2] = molecular target: T2, BRAF G466V (Homo sapiens, UniProt P15056, G466V); experiment: Cellular assay of target protein degradation, T-Rex 293 cells stably transfected with HA-BRAF G466V (HA immunofluorescence, high content imaging); assay type: cell-based; conditions: T-Rex 293 HA-BRAF G466V; for DC50: half maximal degradation, read-out: BRaf G466V DC50; for Dmax: maximum degradation observed
T2 construct: expressed in transfected cells
In short: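 First, stably transfected T-Rex 293 cells were plated with 0.75 ng/mL doxycycline and grown for 24 hours. Next, compound (final 30 nM to 3 pM, 0.1% DMSO) was added for another 24 hours at 37° C. Finally, cells were fixed, stained for HA and imaged.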

T2 sequence (P15056 whole entry G466V): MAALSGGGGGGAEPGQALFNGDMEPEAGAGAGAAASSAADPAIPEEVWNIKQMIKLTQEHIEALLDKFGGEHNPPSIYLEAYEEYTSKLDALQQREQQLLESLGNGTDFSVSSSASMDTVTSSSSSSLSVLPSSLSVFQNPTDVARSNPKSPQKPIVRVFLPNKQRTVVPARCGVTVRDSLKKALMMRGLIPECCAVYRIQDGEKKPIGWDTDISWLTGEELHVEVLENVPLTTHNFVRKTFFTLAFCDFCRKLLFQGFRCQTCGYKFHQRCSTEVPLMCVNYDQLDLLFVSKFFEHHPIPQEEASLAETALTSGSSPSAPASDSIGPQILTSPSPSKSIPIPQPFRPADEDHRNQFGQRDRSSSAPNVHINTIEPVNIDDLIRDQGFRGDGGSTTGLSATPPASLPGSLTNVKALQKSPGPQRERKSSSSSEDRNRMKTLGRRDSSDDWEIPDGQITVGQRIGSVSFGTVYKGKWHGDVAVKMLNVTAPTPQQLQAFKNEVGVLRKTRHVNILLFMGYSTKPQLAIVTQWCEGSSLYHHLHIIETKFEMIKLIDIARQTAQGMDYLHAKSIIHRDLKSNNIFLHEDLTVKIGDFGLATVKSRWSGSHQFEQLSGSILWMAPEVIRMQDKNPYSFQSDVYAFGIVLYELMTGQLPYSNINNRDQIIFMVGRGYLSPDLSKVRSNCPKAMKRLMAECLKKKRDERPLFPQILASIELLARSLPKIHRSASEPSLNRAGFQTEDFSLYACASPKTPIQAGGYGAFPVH
T1 sequence (P15056 whole entry V600E): as the sequence (P15056 whole entry G466V) above, with V466G, V600E counted along it

DC50 [1] [nM]	Dmax [1] [%]	DC50 [2] [nM]	Dmax [2] [%]	Structure (SMILES)
5 to 50	35 to 70	1 to 10	> 70	O=C1CC[C@@H](N2Cc3cc(C4CN(CC5CC6(C5)CN(c5ccc(-c7cnc8[nH]cc(C(=O)c9c(F)ccc(NS(=O)(=O)N%10CC[C@@H](F)C%10)c9F)c8c7)cc5)C6)C4)ccc3C2=O)C(=O)N1 [Compound 100, (3R)-N-{3-[5-(4-{6-[(3-{2-[(3R)-2,6-dioxopiperidin-3-yl]-1-oxo-2,3-dihydro-1H-isoindol-5-yl}azetidin-1-yl)methyl]-2-azaspiro[3.3]heptan-2-yl}phenyl)-1H-pyrrolo[2,3-b]pyridine-3-carbonyl]-2,4-difluorophenyl}-3-fluoropyrrolidine-1-sulfonamide]
5 to 50	35 to 70	1 to 10	> 70	O=C1CC[C@@H](N2Cc3cc(C[C@@H](O)CN4CC5(C4)CN(c4ccc(-c6cnc7[nH]cc(C(=O)c8c(F)ccc(NS(=O)(=O)N9CC[C@@H](F)C9)c8F)c7c6)cc4)C5)ccc3C2=O)C(=O)N1 [Compound 129, (3R)-N-{3-[5-(4-{6-[(2R)-3-{2-[(3R)-2,6-dioxopiperidin-3-yl]-1-oxo-2,3-dihydro-1H-isoindol-5-yl}-2-hydroxypropyl]-2,6-diazaspiro[3.3]heptan-2-yl}phenyl)-1H-pyrrolo[2,3-b]pyridine-3-carbonyl]-2,4-difluorophenyl}-3-fluoropyrrolidine-1-sulfonamide]
5 to 50	35 to 70	< 1	> 70	O=C1CC[C@@H](N2Cc3cc(C4CN(CC5CCN(c6ccc(-c7cnc8[nH]cc(C(=O)c9c(F)ccc(NS(=O)(=O)N%10CC[C@@H](F)C%10)c9F)c8c7)cc6)CC5)C4)ccc3C2=O)C(=O)N1 [Compound 84, (3R)-N-{3-[5-(4-{4-[(3-{2-[(3R)-2,6-dioxopiperidin-3-yl]-1-oxo-2,3-dihydro-1H-isoindol-5-yl}azetidin-1-yl)methyl]piperidin-1-yl}phenyl)-1H-pyrrolo[2,3-b]pyridine-3-carbonyl]-2,4-difluorophenyl}-3-fluoropyrrolidine-1-sulfonamide]
5 to 50	35 to 70	1 to 10	> 70	O=C1CC[C@@H](N2Cc3cc(OC[C@@H](O)CN4CC5(C4)CN(c4ccc(-c6cnc7[nH]cc(C(=O)c8c(F)ccc(NS(=O)(=O)N9CC[C@@H](F)C9)c8F)c7c6)cc4)C5)ccc3C2=O)C(=O)N1 [Compound 166, (3R)-N-{3-[5-(4-{6-[(2)S-3-({2-[(3R)-2,6-dioxopiperidin-3-yl]-1-oxo-2,3-dihydro-1H-isoindol-5-yl}oxy)-2-hydroxypropyl]-2,6-diazaspiro[3.3]heptan-2-yl}phenyl)-1H-pyrrolo[2,3-b]pyridine-3-carbonyl]-2,4-difluorophenyl}-3-fluoropyrrolidine-1-sulfonamide]
5 to 50	35 to 70	1 to 10	35 to 70	O=C1CC[C@H](NC(=O)c2ccc(N3CCC(CN4CC5(C4)CN(c4ccc(-c6cnc7[nH]cc(C(=O)c8c(F)ccc(NS(=O)(=O)N9CC[C@@H](F)C9)c8F)c7c6)cc4)C5)CC3)cc2F)C(=O)N1 [Compound 29, 4-(4-{[6-(4-{3-[2,6-difluoro-3-({[(3R)-3-fluoropyrrolidin-1-yl]sulfonyl}amino)benzoyl]-1H-pyrrolo[2,3-b]pyridin-5-yl}phenyl)-2,6-diazaspiro[3.3]heptan-2-yl]methyl}piperidin-1-yl)-N-[(3S)-2,6-dioxopiperidin-3-yl]-2-fluorobenzamide]
50 to 500	35 to 70	1 to 10	35 to 70	C[C@@]12CN(CC3CCN(c4ccc5c(c4)CN([C@H]4CCC(=O)NC4=O)C5=O)CC3)C[C@@H]1CN(c1ccc(-c3cnc4[nH]cc(C(=O)c5c(F)ccc(NS(=O)(=O)N6CC[C@@H](F)C6)c5F)c4c3)cc1)C2 [Compound 51, (3R)-N-[3-(5-{4-[(3aS,6aR)-5-[(1-{2-[(3S)-2,6-dioxopiperidin-3-yl]-1-oxo-2,3-dihydro-1H-isoindol-5-yl}piperidin-4-yl)methyl]-3a-methyl-octahydropyrrolo[3,4-c]pyrrol-2-yl]phenyl}-1H-pyrrolo[2,3-b]pyridine-3-carbonyl)-2,4-difluorophenyl]-3-fluoropyrrolidine-1-sulfonamide]
5 to 50	35 to 70	< 1	> 70	O=C1CCC(N2Cc3cc(C4CCN(C5CCN(c6ccc(-c7cnc8[nH]cc(C(=O)c9c(F)ccc(NS(=O)(=O)N%10CC[C@@H](F)C%10)c9F)c8c7)cc6)CC5)CC4)ccc3C2=O)C(=O)N1 (stereo partly drawn) [Compound 326, (3R)-N-{3-[5-(4-{4-[2-(2,6-dioxopiperidin-3-yl)-1-oxo-2,3-dihydro-1H-isoindol-5-yl]-[1,4′-bipiperidin]-1′-yl}phenyl)-1H-pyrrolo[2,3-b]pyridine-3-carbonyl]-2,4-difluorophenyl}-3-fluoropyrrolidine-1-sulfonamide]
5 to 50	35 to 70	1 to 10	> 70	O=C1CCC(N2Cc3cc(C4CCN(C[C@@H]5CCN(c6ccc(-c7cnc8[nH]cc(C(=O)c9c(F)ccc(NS(=O)(=O)N%10CC[C@@H](F)C%10)c9F)c8c7)cc6)C[C@@H]5F)CC4)ccc3C2=O)C(=O)N1 (stereo partly drawn) [Compound 125, (3R)-N-[3-(5-{4-[(3R,4S)-4-({4-[2-(2,6-dioxopiperidin-3-yl)-1-oxo-2,3-dihydro-1H-isoindol-5-yl]piperidin-1-yl}methyl)-3-fluoropiperidin-1-yl]phenyl}-1H-pyrrolo[2,3-b]pyridine-3-carbonyl)-2,4-difluorophenyl]-3-fluoropyrrolidine-1-sulfonamide]
> 500		10 to 30	< 35	O=C1CC[C@@H](NC(=O)c2ccc(N3CCC(CN4CC5(C4)CN(c4ccc(-c6cnc7[nH]cc(C(=O)c8c(F)ccc(NS(=O)(=O)N9CC[C@@H](F)C9)c8F)c7c6)cc4)C5)CC3)cc2F)C(=O)N1 [Compound 30, 4-(4-{[6-(4-{3-[2,6-difluoro-3-({[(3R)-3-fluoropyrrolidin-1-yl]sulfonyl}amino)benzoyl]-1H-pyrrolo[2,3-b]pyridin-5-yl}phenyl)-2,6-diazaspiro[3.3]heptan-2-yl]methyl}piperidin-1-yl)-N-[(3R)-2,6-dioxopiperidin-3-yl]-2-fluorobenzamide]
5 to 50	35 to 70	1 to 10	> 70	O=C1CCC(N2Cc3cc(OC[C@@H](O)CN4CC5(C4)CN(c4ccc(-c6cnc7[nH]cc(C(=O)c8c(F)ccc(NS(=O)(=O)N9CC[C@@H](F)C9)c8F)c7c6)cc4)C5)ccc3C2=O)C(=O)N1 (stereo partly drawn) [Compound 122, (3R)-N-{3-[5-(4-{6-[(2S)-3-{[2-(2,6-dioxopiperidin-3-yl)-1-oxo-2,3-dihydro-1H-isoindol-5-yl]oxy}-2-hydroxypropyl]-2,6-diazaspiro[3.3]heptan-2-yl}phenyl)-1H-pyrrolo[2,3-b]pyridine-3-carbonyl]-2,4-difluorophenyl}-3-fluoropyrrolidine-1-sulfonamide]
5 to 50	35 to 70	1 to 10	> 70	O=C1CCC(N2Cc3cc(N4CCC(CN5C[C@H]6CCN(c7ccc(-c8cnc9[nH]cc(C(=O)c%10c(F)ccc(NS(=O)(=O)N%11CC[C@@H](F)C%11)c%10F)c9c8)cc7)C[C@H]6C5)CC4)ccc3C2=O)C(=O)N1 (stereo partly drawn) [Compound 3, (3R)-N-[3-(5-{4-[(3aR,7aS)-2-({1-[2-(2,6-dioxopiperidin-3-yl)-1-oxo-2,3-dihydro-1H-isoindol-5-yl)piperidin-4-yl}methyl)-octahydro-1H-pyrrolo[3,4-c]pyridin-5-yl]phenyl}-1H-pyrrolo[2,3-b]pyridine-3-carbonyl)-2,4-difluorophenyl]-3-fluoropyrrolidine-1-sulfonamide]
50 to 500	< 35	1 to 10	35 to 70	O=C1CCC(N2Cc3cc(N4CCC(CN5CCN(C6(c7ccc(-c8cnc9[nH]cc(C(=O)c%10c(F)ccc(NS(=O)(=O)N%11CC[C@@H](F)C%11)c%10F)c9c8)cc7)CC6)CC5)CC4)ccc3C2=O)C(=O)N1 (stereo partly drawn) [Compound 162, (3R)-N-{3-[5-(4-{1-[4-({1-[2-(2,6-dioxopiperidin-3-yl)-1-oxo-2,3-dihydro-1H-isoindol-5-yl]piperidin-4-yl}methyl)piperazin-1-yl]cyclopropyl}phenyl)-1H-pyrrolo[2,3-b]pyridine-3-carbonyl]-2,4-difluorophenyl}-3-fluoropyrrolidine-1-sulfonamide]
5 to 50	35 to 70	< 1	> 70	CCN(C)S(=O)(=O)Nc1ccc(F)c(C(=O)c2c[nH]c3ncc(-c4ccc(N5CCC(CN6CCC(c7ccc8c(c7)CN(C7CCC(=O)NC7=O)C8=O)CC6)CC5)cc4)cc23)c1F (stereo not drawn) [Compound 191, 3-(5-{1-[(1-{4-[3-(3-{[ethyl(methyl)sulfamoyl]amino}-2,6-difluorobenzoyl)-1H-pyrrolo[2,3-b]pyridin-5-yl]phenyl}piperidin-4-yl)methyl]piperidin-4-yl}-1-oxo-2,3-dihydro-1H-isoindol-2-yl)piperidine-2,6-dione]

Structure (SMILES)	DC50 [1] [nM]	Dmax [1] [%]	DC50 [2] [nM]	Dmax [2] [%]
O=C1CC[C@H](NC(=O)c2ccc(OCCCCN3CCN(c4ccc(-c5cnc6[nH]cc(C(=O)c7c(F)ccc(NS(=O)(=O)N8CC[C@@H](F)C8)c7F)c6c5)cc4)CC3)cc2F)C(=O)N1 [Compound 349, 4-{4-[4-(4-{3-[2,6-difluoro-3-({[(3R)-fluoropyrrolidin-1-yl]sulfonyl}amino)benzoyl]-1H-pyrrolo[2,3-b]pyridin-5-yl}phenyl)piperazin-1-yl]butoxy}-N-[(3S)-2,6-dioxopiperidin-3-yl]-2-fluorobenzamide]	> 500	> 70	> 30	
